Source: US20240335424A1, “COMPOSITIONS AND METHODS FOR TREATING LIPOMA PAIN” (Raziel Therapeutics Ltd., priority 2021, published 2024)
Entries after “also recorded” stand apart in the source; their conditions may differ.

Assays:
Assay type in all cases: in vivo, human
[1] = tested on: Dercum's disease (DD) lipomas; experiment: Phase 2b clinical trial: lipoma pain by Comparative Pain Scale; conditions: for Pain Score: Average per patient, Mean / Pain score: All lipomas, Mean: Comparative Pain Scale 0-10; for Pain score: All lipomas, Mean / Change from baseline in Pain Score: All lipomas, Relative Change from baseline, Mean: per lipoma analysis
Text: The clinical trial described herein was a double-blind, randomized, placebo-controlled phase 2b clinical trial for the evaluation of safety and efficacy of Compound 1 (5-(3,6-dibromo-9H-carbazol-9-yl)-N,N,N-trimethylpentan-1-aminium, provided as a chloride salt, also designated Compound 1A), in subjects having Dercum's disease (DD) lipomas. Study Objectives. The primary objective was to evaluate the average percent reduction in lipoma height on day 84 after injection vs. baseline in the treatment group compared to the placebo group. Efficacy was determined by ultrasound assessment of the lipoma/nodule dimensions after treatment vs. baseline. The key secondary objective was assessment of lipoma/nodule associated pain using the Comparative Pain Scale. Safety was assessed by frequency of adverse events and by change-from-baseline values for vital signs, clinical laboratory and ECG. Study Design. This was a double blind, multi-center, randomized, placebo-controlled clinical trial in DD subjects having lipomas. A total of 38 DD patients were enrolled into the study. Patients were randomized in approximately a 1:1 ratio into either the intervention or the placebo arm. Twenty (20) subjects, having a total of 125 lipomas, were treated with Compound 1. Eighteen (18) subjects, having a total of 110 lipomas, were treated with placebo. Once the study ended and codes were opened, 84 days after dosing. Subjects received their study treatment on a single occasion in multiple injections. Dosing was calculated according to lipoma size (diameter) as determined by ultrasound. Subjects were dosed in accordance with Table 1. Injections were perpendicular (90°) to injected skin surface and spread randomly, at least 1 cm apart. At least 4 lipomas/nodules, preferably 6, and no more than 8, were injected per subject. Compound 1 dose per injection site was 5 mg, and a distance of 1-3 cm between injection points was maintained, to allow good distribution of Compound 1 within lipoma fat. A maximal dose of up to 240 mg/subject (a total of 48 injections of 5 mg/injection) was allowed in this study and the highest actual tested dose was 200 mg/subject (40 injections into 4-8 lipomas). A total of 20 patients were treated with Compound 1 and a total of 18 patients were treated with placebo. Primary endpoint was the average percent reduction in lipoma/noduleheight on day 84 after injection vs baseline-evaluated by ultrasound in the Compound 1 treatment group compared to the placebo group. Key secondary endpoint was reduction in local pain score per lipoma/nodule on Day 84 vs. baseline as measured by the Comparative Pain Scale. Comparative pain scale ranked the pain from a score from 0 to 10. A score of 0 indicated no pain, a score of 1-3 indicated minor pain, a score of 4-6 indicated moderate pain and a score of 7-10 indicated severe pain. Pain was compared between the intervention (Compound 1) and placebo groups on 2 levels-(1) on the patient level and (2) by lipomas, i.e. comparison between all injected lipomas before and after injection. Study Drug. Compound 1 was administered as a ready to use liquid for injection into subcutaneous fat, supplied in a 1 vial kit. Each vial contains 250 mg Compound 1/5 mL (50 mg/ml) solution Compound 1 in a vehicle comprised of water, propylene glycol and surfactant. The formulation is described in Table 2. Placebo was a solution comprised of vehicle only. Each injection of Compound 1 and placebo contained 0.1 ml. The vehicle was a ready-to-use liquid for injection into subcutaneous fat, supplied in a 1-vial kit. One vial contained 5 mL and had similar composition as the Compound 1 drug product, without the active substance. The components are: Tween-80, propylene glycol, benzyl alcohol, and water. The vehicle was manufactured and packed by […] (Israel) and complies with cGMP requirements. […]

[2] = tested on: Dercum's disease (DD) lipomas; experiment: Phase 2b clinical trial: lipoma/nodule height by ultrasound; conditions: day 84 after injection vs. baseline, compared to placebo
Text: The clinical trial described herein was a double-blind, randomized, placebo-controlled phase 2b clinical trial for the evaluation of safety and efficacy of Compound 1 (5-(3,6-dibromo-9H-carbazol-9-yl)-N,N,N-trimethylpentan-1-aminium, provided as a chloride salt, also designated Compound 1A), in subjects having Dercum's disease (DD) lipomas. Study Objectives. The primary objective was to evaluate the average percent reduction in lipoma height on day 84 after injection vs. baseline in the treatment group compared to the placebo group. Efficacy was determined by ultrasound assessment of the lipoma/nodule dimensions after treatment vs. baseline. The key secondary objective was assessment of lipoma/nodule associated pain using the Comparative Pain Scale. Safety was assessed by frequency of adverse events and by change-from-baseline values for vital signs, clinical laboratory and ECG. Study Design. […] Dosing was calculated according to lipoma size (diameter) as determined by ultrasound. […] Primary endpoint was the average percent reduction in lipoma/noduleheight on day 84 after injection vs baseline-evaluated by ultrasound in the Compound 1 treatment group compared to the placebo group. Key secondary endpoint was reduction in local pain score per lipoma/nodule on Day 84 vs. baseline as measured by the Comparative Pain Scale. […]

[3] = Phase 2b clinical trial: safety (adverse events, vital signs, clinical laboratory, ECG); conditions: up to 200 mg/subject, subcutaneous injection into lipomas
Text: The clinical trial described herein was a double-blind, randomized, placebo-controlled phase 2b clinical trial for the evaluation of safety and efficacy of Compound 1 (5-(3,6-dibromo-9H-carbazol-9-yl)-N,N,N-trimethylpentan-1-aminium, provided as a chloride salt, also designated Compound 1A), in subjects having Dercum's disease (DD) lipomas.
Study Objectives. The primary objective was to evaluate the average percent reduction in lipoma height on day 84 after injection vs. baseline in the treatment group compared to the placebo group. Efficacy was determined by ultrasound assessment of the lipoma/nodule dimensions after treatment vs. baseline. The key secondary objective was assessment of lipoma/nodule associated pain using the Comparative Pain Scale. Safety was assessed by frequency of adverse events and by change-from-baseline values for vital signs, clinical laboratory and ECG.
Study Design. This was a double blind, multi-center, randomized, placebo-controlled clinical trial in DD subjects having lipomas. A total of 38 DD patients were enrolled into the study. Patients were randomized in approximately a 1:1 ratio into either the intervention or the placebo arm. Twenty (20) subjects, having a total of 125 lipomas, were treated with Compound 1. Eighteen (18) subjects, having a total of 110 lipomas, were treated with placebo. Once the study ended and codes were opened, 84 days after dosing.
At least 4 lipomas/nodules, preferably 6, and no more than 8, were injected per subject. Compound 1 dose per injection site was 5 mg, and a distance of 1-3 cm between injection points was maintained, to allow good distribution of Compound 1 within lipoma fat. A maximal dose of up to 240 mg/subject (a total of 48 injections of 5 mg/injection) was allowed in this study and the highest actual tested dose was 200 mg/subject (40 injections into 4-8 lipomas). A total of 20 patients were treated with Compound 1 and a total of 18 patients were treated with placebo.

[4] = Day 84, compared to the placebo group
[5] = Visit 2 - Baseline/Treatment (Day 0), prior to injection
[6] = Visit 5 - Day 28 post treatment
[7] = Visit 6 - Day 56 post treatment
[8] = Visit 7 - Day 84 post treatment

SMILES: C[N+](C)(C)CCCCCn1c2ccc(Br)cc2c2cc(Br)ccc21 [Compound 1, 5-(3,6-dibromo-9H-carbazol-9-yl)-N,N,N-trimethylpentan-1-aminium]
- average pain reduction per patient (by-patient analysis) ([1]; 84 days after treatment, vs. 36.82% in placebo, P=0.98 as printed): 56.37%
- average pain reduction per lipoma (all-lipoma analysis) ([1]; 84 days after treatment, vs. 37.50% in placebo, p=0.0004 t-test, p 0.079 mixed model): 59.06%
- reduction in pain vs. placebo, by-lipoma analysis [1, 4]: significant reduction in pain per lipoma; also recorded: statistically significant reduction in pain
- reduction of pain vs. placebo, per-patient analysis [1, 4]: a trend for reduction of pain
- Pain Score: Average per patient, Mean [1, 5]: 4.89
- Pain score: All lipomas, Mean [1, 5]: 4.86
- Change from baseline in Pain Score: Average per patient, Relative Change from baseline, Mean [1, 6]: −41.76%
- Pain Score: Average per patient, Mean [1, 6]: 2.82
- Pain score: All lipomas, Mean [1, 6]: 2.72
- Change from baseline in Pain Score: All lipomas, Relative Change from baseline, Mean [1, 6]: −41.55%
- Change from baseline in Pain Score: Average per patient, Relative Change from baseline, Mean [1, 7]: −43.53%
- Pain Score: Average per patient, Mean [1, 7]: 2.56
- Pain score: All lipomas, Mean [1, 7]: 2.38
- Change from baseline in Pain Score: All lipomas, Relative Change from baseline, Mean [1, 7]: −46.74%
- Change from baseline in Pain Score: Average per patient, Relative Change from baseline, Mean [1, 8]: −56.37%
- Pain Score: Average per patient, Mean [1, 8]: 2.03
- Pain score: All lipomas, Mean [1, 8]: 1.86
- Change from baseline in Pain Score: All lipomas, Relative Change from baseline, Mean [1, 8]: −59.06%
- effect of a single dose injected into lipomas on lipoma-associated pain ([1]; single dose, via a single injection or multiple injections): significantly alleviates lipoma-associated pain
- reduction in lipoma height [2]: not significant
- adverse events, kind [3]: mostly injection site edema pain and pruritus
- changes in blood parameters [3]: no clinically significant changes in blood parameters
- serious adverse events [3]: no reported serious adverse events
- tolerability [3]: generally well tolerated
